Assay results reported in ChEMBL document CHEMBL1212812, “Multi-target spectral moment QSAR versus ANN for antiparasitic drugs against different parasite species” (Bioorg Med Chem, 2010).

Experiments:
Format in all cases: functional, organism-based
Trichomonas vaginalis = experiment: Antimicrobial activity against Trichomonas vaginalis
Leishmania infantum = experiment: Antimicrobial activity against Leishmania infantum
[1] = tested on: Trypanosoma brucei brucei; experiment: Antimicrobial activity against Trypanosoma brucei brucei
[2] = tested on: Trypanosoma brucei rhodesiense; experiment: Antimicrobial activity against Trypanosoma brucei rhodesiense
Leishmania donovani = experiment: Antimicrobial activity against Leishmania donovani

| SMILES | IC50 (Trichomonas vaginalis) [µM] | IC50 (Leishmania infantum) [µM] | IC50 [1] [µM] | other results |
| --- | --- | --- | --- | --- |
| CC(C)(C)OC(=O)NC(=N)c1ccc(NC(=O)Cn2cnc([N+](=O)[O-])c2)cc1 | – | – | 200 | – |
| COc1cc(NS(C)(=O)=O)ccc1Nc1nc2ccc([N+](=O)[O-])cc2s1 | 83 | 18 | – | – |
| O=[N+]([O-])c1ccc2nc(Nc3cccc(O)c3)sc2c1 | 174 | 15 | – | – |
| O=[N+]([O-])c1ccc2nc(N3CCCCC3)sc2c1 | 189 | 6 | – | – |
| N=C(NCCCN(CCNC(=N)NC1CCCCC1)C(=N)NC1CCCCC1)NC1CCCCC1 | – | – | – | IC50 [2]: 21 µM |
| C1CN(N2CCNCC2)CCN1 | – | – | – | IC50 [2]: 17 µM |
| O=[N+]([O-])c1ccc2nc(Nc3ccccc3)sc2c1 | 186 | 36 | – | – |
| CC(C)(C)CC(=O)N1CCN(N2CCN(C(=O)CC(C)(C)C)CC2)CC1 | – | – | – | IC50 [2]: 5 µM |
| O=C(O)c1ccccc1Nc1ccc2nc(Cl)sc2c1 | 17 | 5 | – | – |
| CN(C)c1ccc(Nc2nc3ccc(Nc4ccccc4C(=O)O)cc3s2)cc1 | 26 | 68 | – | – |
| COc1cc(NS(C)(=O)=O)ccc1Nc1nc2ccc(Nc3ccccc3C(=O)O)cc2s1 | 22 | 13 | – | – |
| O=C(O)c1ccccc1Nc1ccc2nc(Nc3cccc(O)c3)sc2c1 | 134 | 237 | – | – |
| CC(=O)Nc1nc2ccc(Nc3ccccc3C(=O)O)cc2s1 | 18 | 18 | – | – |
| Nc1nc2ccc(Nc3ccccc3C(=O)O)cc2s1 | 125 | 2 | – | – |
| CN(C)c1nc2ccc(Nc3ccccc3C(=O)O)cc2s1 | 102 | 80 | – | – |
| CCN(CC)c1nc2ccc(Nc3ccccc3C(=O)O)cc2s1 | 3 | 33 | – | – |
| O=C(O)c1ccccc1Nc1ccc2nc(N3CCCCC3)sc2c1 | 83 | 15 | – | – |
| CCN(CC)CCCNc1nc2ccc(Nc3ccccc3C(=O)O)cc2s1 | 134 | 2 | – | – |
| O=C(O)c1ccccc1Nc1ccc2nc(Nc3ccccc3)sc2c1 | 41 | 30 | – | – |
| CNc1nc(NC)nc(NN)n1 | – | – | 200 | – |
| Nc1nc(N)nc(N/N=C\c2ccc([N+](=O)[O-])s2)n1 | – | – | 1 | – |
| CNc1nc(NC)nc(N/N=C\c2ccc([N+](=O)[O-])o2)n1 | – | – | 15 | – |
| CC(C)(C)OC(=O)NC(=N)c1ccc(NC(=O)Cn2ccnc2[N+](=O)[O-])cc1 | – | – | 119 | – |
| CCCN(CCC)c1ccc(S(=O)(=O)Nc2ccccc2)cc1[N+](=O)[O-] | – | – | 20 | IC50 (Leishmania donovani): 43 µM |
| CCCN(CCC)c1ccc(S(=O)(=O)N([N+](=O)[O-])[N+](=O)[O-])cc1 | – | – | 12 | IC50 (Leishmania donovani): 65 µM |
| NNc1nc(N)nc(N)n1 | – | – | 200 | – |

| SMILES | IC50 (Trichomonas vaginalis) [µM] | IC50 (Leishmania infantum) [µM] | IC50 [1] [µM] | other results |
| --- | --- | --- | --- | --- |
| CCCN(CCC)c1c([N+](=O)[O-])cc(S(=O)(=O)N(C)C)cc1[N+](=O)[O-] | – | – | 6 | IC50 (Leishmania donovani): 100 µM |
| CCCN(CCC)c1c([N+](=O)[O-])cc(S(=O)(=O)NC2CC2)cc1[N+](=O)[O-] | – | – | 3 | – |
| CCCN(CCC)c1c([N+](=O)[O-])cc(S(=O)(=O)Nc2cccc(OC)c2)cc1[N+](=O)[O-] | – | – | 1 | IC50 (Leishmania donovani): 8 µM |
| CCCNS(=O)(=O)c1cc([N+](=O)[O-])c(N(CCC)CCC)c([N+](=O)[O-])c1 | – | – | 9 | – |
| CCCN(CCC)c1c([N+](=O)[O-])cc(S(=O)(=O)N(CC)CC)cc1[N+](=O)[O-] | – | – | 8 | – |
| CN(CCCNC1=NCCN1)CCNC1=NCCN1 | – | – | – | IC50 [2]: 2 µM |
| CCCN(CCC)c1c([N+](=O)[O-])cc(S(=O)(=O)Nc2ccc(Cl)c(Cl)c2)cc1[N+](=O)[O-] | – | – | 8 | – |
| CCCN(CCC)c1c([N+](=O)[O-])cc(S(=O)(=O)N2CCCC2)cc1[N+](=O)[O-] | – | – | 7 | – |
| CCCN(CCC)c1c([N+](=O)[O-])cc(S(=O)(=O)N2CCOCC2)cc1[N+](=O)[O-] | – | – | 100 | IC50 (Leishmania donovani): 100 µM |
| CCCN(CCC)c1c([N+](=O)[O-])cc(S(=O)(=O)Nc2cccc(C)c2)cc1[N+](=O)[O-] | – | – | 2 | – |
| CCCN(CCC)c1c([N+](=O)[O-])cc(S(=O)(=O)Nc2cccc(Cl)c2)cc1[N+](=O)[O-] | – | – | 2 | IC50 (Leishmania donovani): 6 µM |
| CCCN(CCC)c1c([N+](=O)[O-])cc(S(=O)(=O)NC)cc1[N+](=O)[O-] | – | – | 5 | IC50 (Leishmania donovani): 100 µM |
| CCCN(CCC)c1c([N+](=O)[O-])cc(S(=O)(=O)NCC)cc1[N+](=O)[O-] | – | – | 5 | IC50 (Leishmania donovani): 100 µM |
| CCCN(CCC)c1c([N+](=O)[O-])cc(S(=O)(=O)NC(C)C)cc1[N+](=O)[O-] | – | – | 4 | IC50 (Leishmania donovani): 100 µM |
| CCN(CC)c1c([N+](=O)[O-])cc(S(=O)(=O)Nc2ccccc2)cc1[N+](=O)[O-] | – | – | 3 | – |
| CCCCCCN(CCCCCC)S(=O)(=O)c1cc([N+](=O)[O-])c(N(CCC)CCC)c([N+](=O)[O-])c1 | – | – | 50 | IC50 (Leishmania donovani): 100 µM |
| CCCN(CCC)c1c([N+](=O)[O-])cc(S(=O)(=O)Nc2ccccn2)cc1[N+](=O)[O-] | – | – | 9 | – |
| CN(CCCNC(=O)OCc1ccccc1)CCNC(=O)OCc1ccccc1 | – | – | – | IC50 [2]: 21 µM |
| N=C(N)NCCCNCCNC(=N)N | – | – | – | IC50 [2]: 20 µM |
| O=C(NCCCN(CCO)CCNC(=O)OCc1ccccc1)OCc1ccccc1 | – | – | – | IC50 [2]: 4 µM |
| CC(=O)OCCN(CCCNC(=O)OCc1ccccc1)CCNC(=O)OCc1ccccc1 | – | – | – | IC50 [2]: 30 µM |
| CN(CCN)CCCN | – | – | – | IC50 [2]: 69 µM |
| NCCCN(CCN)CCc1c[nH]c2ccccc12 | – | – | – | IC50 [2]: 16 µM |
| O=C(NCCCN(CCNC(=O)OCc1ccccc1)CCc1c[nH]c2ccccc12)OCc1ccccc1 | – | – | – | IC50 [2]: 84 µM |
| C(CNCCNC1=NCCN1)CNC1=NCCN1 | – | – | – | IC50 [2]: 11 µM |

Continued, in another order:

| IC50 (Trichomonas vaginalis) [µM] | IC50 (Leishmania infantum) [µM] | IC50 [1] [µM] | SMILES | other results |
| --- | --- | --- | --- | --- |
| 200 | 19 | – | Nc1ccc2nc(Nc3cccc(O)c3)sc2c1 | – |
| 200 | 104 | – | O=[N+]([O-])c1ccc2nc(NCCO)sc2c1 | – |
| 200 | 1 | – | CC(=O)Nc1nc2ccc([N+](=O)[O-])cc2s1 | – |
| 200 | 4 | – | CN(C)c1nc2ccc([N+](=O)[O-])cc2s1 | – |
| 200 | 99 | – | CCN(CC)c1nc2ccc([N+](=O)[O-])cc2s1 | – |
| 49 | 4 | – | CCN(CC)CCCNc1nc2ccc([N+](=O)[O-])cc2s1 | – |
| 200 | 1 | – | CCCNc1nc2ccc([N+](=O)[O-])cc2s1 | – |
| 200 | 54 | – | Nc1ccc2nc(Cl)sc2c1 | – |
| 133 | 73 | – | CN(C)c1ccc(Nc2nc3ccc(N)cc3s2)cc1 | – |
| 200 | 3 | – | Nc1ccc2nc(NCCO)sc2c1 | – |
| 156 | 10 | – | COc1cc(NS(C)(=O)=O)ccc1Nc1nc2ccc(N)cc2s1 | – |
| 200 | 121 | – | CC(=O)Nc1nc2ccc(N)cc2s1 | – |
| 200 | 2 | – | CN(C)c1nc2ccc(N)cc2s1 | – |
| 200 | 23 | – | CCN(CC)c1nc2ccc(N)cc2s1 | – |
| 214 | 10 | – | Nc1ccc2nc(N3CCCCC3)sc2c1 | – |
| 200 | 65 | – | CCN(CC)CCCNc1nc2ccc(N)cc2s1 | – |
| 200 | 98 | – | CCCNc1nc2ccc(N)cc2s1 | – |
| 208 | 63 | – | Nc1ccc2nc(Nc3ccccc3)sc2c1 | – |
| 158 | 4 | – | O=C(O)c1ccccc1Nc1ccc2nc(NCCO)sc2c1 | – |
| 76 | 39 | – | CCCNc1nc2ccc(Nc3ccccc3C(=O)O)cc2s1 | – |
| 200 | 51 | – | Nc1nc2ccc([N+](=O)[O-])cc2s1 | – |
| 200 | 151 | – | Nc1ccc2nc(N)sc2c1 | – |
